The values below come from patent US11780893B2, “Kv1.3 blockers” (Zealand Pharma A/S, priority 2019, dated 2023).

Bridge positions count the residues as written; N and C are the ends. Square brackets hold non-standard residues; d marks the D form. Peptide text beside a SMILES is read from it. Nle = CCCC[C@H](N)C(=O)O

The target in this assay is T1, human Kv1.3 voltage-gated K+ channel (Homo sapiens, UniProt P22001).
T1 construct: host or cells: CHO-DUKX
T1 sequence (P22001 whole entry): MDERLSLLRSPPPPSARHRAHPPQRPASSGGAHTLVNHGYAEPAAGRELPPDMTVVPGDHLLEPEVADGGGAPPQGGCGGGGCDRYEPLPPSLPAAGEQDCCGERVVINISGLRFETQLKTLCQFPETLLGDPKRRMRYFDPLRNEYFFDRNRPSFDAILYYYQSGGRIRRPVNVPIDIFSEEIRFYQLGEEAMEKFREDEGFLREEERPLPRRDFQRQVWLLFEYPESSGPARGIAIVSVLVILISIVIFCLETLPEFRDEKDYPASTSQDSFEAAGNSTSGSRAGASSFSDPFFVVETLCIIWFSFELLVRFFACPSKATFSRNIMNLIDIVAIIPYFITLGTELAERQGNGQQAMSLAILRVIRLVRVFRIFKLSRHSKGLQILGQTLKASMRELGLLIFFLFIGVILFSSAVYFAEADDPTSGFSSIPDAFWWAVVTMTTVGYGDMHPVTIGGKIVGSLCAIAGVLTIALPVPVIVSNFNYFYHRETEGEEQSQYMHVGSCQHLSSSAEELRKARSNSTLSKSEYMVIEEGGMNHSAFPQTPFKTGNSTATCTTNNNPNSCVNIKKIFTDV
Put plainly: cell-based. The following applies: inhibition of thallium flux, CHO-DUKX cells with human Kv1.3; read-out: IC50.
For `CC[C@H](C)[C@@H]1NC(=O)[C@H](CCCCN)NC(=O)[C@H](CC(C)C)NC(=O)[C@@H]2CSSC[C@@H](C(=O)N[C@@H](Cc3ccc(O)cc3)C(=O)N3CCC[C@H]3C(=O)N[C@@H](CCCNC(=N)N)C(N)=O)NC(=O)[C@H](CCCCN)NC(=O)[C@@H]3CSSC[C@H](NC(=O)[C@H](CCC(=O)O)NC(=O)[C@H](C(C)C)NC(=O)[C@H](CO)NC(=O)[C@H](C)NC(=O)[C@H](CO)NC(=O)[C@@H](NC(=O)[C@H](CCCNC(=N)N)NC(=O)[C@H](CCSC)NC(=O)[C@H](CC(=O)O)NC(=O)[C@H](CCSC)NC(=O)[C@@H](N)CC(N)=O)CSSC[C@H](NC(=O)[C@H](CCCCN)NC(=O)CNC(=O)[C@H](Cc4ccccc4)NC(=O)[C@H]([C@@H](C)CC)NC(=O)[C@H](CO)NC(=O)CNC1=O)C(=O)N[C@@H](CCSC)C(=O)N[C@@H](CC(N)=O)C(=O)N[C@@H](CCCCN)C(=O)N[C@@H](CCCCN)C(=O)N3)C(=O)N[C@@H](CCCCN)C(=O)N[C@@H](CCC(N)=O)C(=O)N[C@@H](CCCCN)C(=O)N2` [Compound 57] (H-NMDMRCSASVECKQKCLKIGSIFGKCMNKKCKCYPR-NH2; disulfide 6-26, 12-31, 16-33), the half-inhibitory concentration (IC50) turned out to be 110 pM. The result for `CC[C@H](C)[C@@H]1NC(=O)[C@H](CO)NC(=O)CNC(=O)[C@H](CCC(=O)O)NC(=O)[C@H](C)NC(=O)[C@H](CCCCN)NC(=O)[C@H](CC(C)C)NC(=O)[C@@H]2CSSC[C@@H](C(=O)N[C@@H](Cc3ccc(O)cc3)C(=O)N3CCC[C@H]3C(=O)N[C@@H](CCCNC(=N)N)C(N)=O)NC(=O)[C@H](CCCCN)NC(=O)[C@@H]3CSSC[C@H](NC(=O)[C@H](CCC(=O)O)NC(=O)[C@H](C(C)C)NC(=O)[C@H](CO)NC(=O)[C@H](C)NC(=O)[C@H](CO)NC(=O)[C@@H](NC(=O)[C@H](CCCNC(=N)N)NC(=O)[C@H](CCSC)NC(=O)[C@H](CC(=O)O)NC(=O)[C@H](CCSC)NC(=O)[C@@H](N)CC(N)=O)CSSC[C@H](NC(=O)[C@H](CCCCN)NC(=O)CNC(=O)[C@H](Cc4ccccc4)NC1=O)C(=O)N[C@@H](CCSC)C(=O)N[C@@H](CC(N)=O)C(=O)N[C@@H](CCCCN)C(=O)N[C@@H](CCCCN)C(=O)N3)C(=O)N[C@@H](CCCCN)C(=O)N[C@@H](CCC(N)=O)C(=O)N[C@@H](CCCCN)C(=O)N2` [Compound 59] (H-NMDMRCSASVECKQKCLKAEGSIFGKCMNKKCKCYPR-NH2; disulfide 6-27, 12-32, 16-34) reads 35 pM; that for `CC[C@H](C)[C@@H]1NC(=O)[C@H](CO)NC(=O)CNC(=O)[C@H](CCCNC(=N)N)NC(=O)[C@H](C)NC(=O)[C@H](CCCCN)NC(=O)[C@H](CC(C)C)NC(=O)[C@@H]2CSSC[C@@H](C(=O)N[C@@H](Cc3ccc(O)cc3)C(=O)N3CCC[C@H]3C(=O)N[C@@H](CCCNC(=N)N)C(N)=O)NC(=O)[C@H](CCCCN)NC(=O)[C@@H]3CSSC[C@H](NC(=O)[C@H](CCC(=O)O)NC(=O)[C@H](C(C)C)NC(=O)[C@H](CO)NC(=O)[C@H](C)NC(=O)[C@H](CO)NC(=O)[C@@H](NC(=O)[C@H](CCCNC(=N)N)NC(=O)[C@H](CCSC)NC(=O)[C@H](CC(=O)O)NC(=O)[C@H](CCSC)NC(=O)[C@@H](N)CC(N)=O)CSSC[C@H](NC(=O)[C@H](CCCCN)NC(=O)CNC(=O)[C@H](Cc4ccccc4)NC1=O)C(=O)N[C@@H](CCSC)C(=O)N[C@@H](CC(N)=O)C(=O)N[C@@H](CCCCN)C(=O)N[C@@H](CCCCN)C(=O)N3)C(=O)N[C@@H](CCCCN)C(=O)N[C@@H](CCC(N)=O)C(=O)N[C@@H](CCCCN)C(=O)N2` [Compound 60] (H-NMDMRCSASVECKQKCLKARGSIFGKCMNKKCKCYPR-NH2; disulfide 6-27, 12-32, 16-34), 35 pM; that for `CC[C@H](C)[C@@H]1NC(=O)[C@H](CO)NC(=O)CNC(=O)[C@H](C)NC(=O)[C@H](CCCCN)NC(=O)[C@H](CC(C)C)NC(=O)[C@@H]2CSSC[C@@H](C(=O)N[C@@H](Cc3ccc(O)cc3)C(=O)N3CCC[C@H]3C(=O)N[C@@H](CCCNC(=N)N)C(N)=O)NC(=O)[C@H](CCCCN)NC(=O)[C@@H]3CSSC[C@H](NC(=O)[C@H](CCC(=O)O)NC(=O)[C@H](C(C)C)NC(=O)[C@H](CO)NC(=O)[C@H](C)NC(=O)[C@H](CO)NC(=O)[C@@H](NC(=O)[C@H](CCCNC(=N)N)NC(=O)[C@H](CCSC)NC(=O)[C@H](CC(=O)O)NC(=O)[C@H](CCSC)NC(=O)[C@@H](N)CC(N)=O)CSSC[C@H](NC(=O)[C@H](CCCCN)NC(=O)CNC(=O)[C@H](Cc4ccccc4)NC1=O)C(=O)N[C@@H](CCSC)C(=O)N[C@@H](CC(N)=O)C(=O)N[C@@H](CCCCN)C(=O)N[C@@H](CCCCN)C(=O)N3)C(=O)N[C@@H](CCCCN)C(=O)N[C@@H](CCC(N)=O)C(=O)N[C@@H](CCCCN)C(=O)N2` [Compound 61] (H-NMDMRCSASVECKQKCLKAGSIFGKCMNKKCKCYPR-NH2; disulfide 6-26, 12-31, 16-33), 400 pM. The result for `CCCC[C@H](NC(=O)[C@H](CC(=O)O)NC(=O)[C@H](CCCC)NC(=O)[C@@H](N)CO)C(=O)N[C@@H](CCCNC(=N)N)C(=O)N[C@H]1CSSC[C@@H]2NC(=O)[C@H](CCCCN)NC(=O)CNC(=O)[C@H](Cc3ccccc3)NC(=O)[C@H]([C@@H](C)CC)NC(=O)[C@H](CO)NC(=O)CNC(=O)[C@H]([C@@H](C)CC)NC(=O)[C@H](C)NC(=O)CNC(=O)[C@H](CC(C)C)NC(=O)[C@@H]3CSSC[C@@H](C(=O)N[C@@H](Cc4ccc(O)cc4)C(=O)N4CCC[C@H]4C(=O)N[C@@H](CCCNC(=N)N)C(N)=O)NC(=O)[C@H](CCCCN)NC(=O)[C@H](CSSC[C@H](NC(=O)[C@H](CCC(=O)O)NC(=O)[C@H](C(C)C)NC(=O)[C@H](CO)NC(=O)[C@H](C)NC(=O)[C@H](CO)NC1=O)C(=O)N[C@@H](CCCCN)C(=O)N[C@@H](CCC(N)=O)C(=O)N[C@@H](CCCCN)C(=O)N3)NC(=O)[C@H](CCCCN)NC(=O)[C@H](CCCCN)NC(=O)[C@H](CC(N)=O)NC(=O)[C@H](CCSC)NC2=O` [Compound 77] (H-S[Nle]D[Nle]RCSASVECKQKCLGAIGSIFGKCMNKKCKCYPR-NH2; disulfide 6-27, 12-32, 16-34) reads 130 pM. The result for `CCCC[C@H](NC(=O)[C@H](CC(=O)O)NC(=O)[C@H](CCCC)NC(=O)[C@@H](N)CO)C(=O)N[C@@H](CCCNC(=N)N)C(=O)N[C@H]1CSSC[C@@H]2NC(=O)[C@H](CCCCN)NC(=O)CNC(=O)[C@H](Cc3ccccc3)NC(=O)[C@H]([C@@H](C)CC)NC(=O)[C@H](CO)NC(=O)CNC(=O)[C@H]([C@@H](C)CC)NC(=O)[C@H](C)NC(=O)[C@H](C)NC(=O)[C@H](CC(C)C)NC(=O)[C@@H]3CSSC[C@@H](C(=O)N[C@@H](Cc4ccc(O)cc4)C(=O)N4CCC[C@H]4C(=O)N[C@@H](CCCNC(=N)N)C(N)=O)NC(=O)[C@H](CCCCN)NC(=O)[C@H](CSSC[C@H](NC(=O)[C@H](CCC(=O)O)NC(=O)[C@H](C(C)C)NC(=O)[C@H](CO)NC(=O)[C@H](C)NC(=O)[C@H](CO)NC1=O)C(=O)N[C@@H](C)C(=O)N[C@@H](CCC(N)=O)C(=O)N[C@@H](CC(C)C)C(=O)N3)NC(=O)[C@H](CCCCN)NC(=O)[C@H](CCCCN)NC(=O)[C@H](CC(N)=O)NC(=O)[C@H](CCSC)NC2=O` [Compound 81] (H-S[Nle]D[Nle]RCSASVECAQLCLAAIGSIFGKCMNKKCKCYPR-NH2; disulfide 6-27, 12-32, 16-34) reads 220 pM; that for `CCCC[C@H](NC(=O)[C@H](CC(=O)O)NC(=O)[C@H](CCCC)NC(=O)[C@@H](N)CO)C(=O)N[C@@H](CCCNC(=N)N)C(=O)N[C@H]1CSSC[C@@H]2NC(=O)[C@H](CCCCN)NC(=O)CNC(=O)[C@H](Cc3ccccc3)NC(=O)[C@H]([C@@H](C)CC)NC(=O)[C@H](CO)NC(=O)CNC(=O)[C@H]([C@@H](C)CC)NC(=O)[C@H](C)NC(=O)[C@H](CCCCN)NC(=O)[C@H](CC(C)C)NC(=O)[C@@H]3CSSC[C@@H](C(=O)N[C@@H](Cc4ccc(O)cc4)C(=O)N4CCC[C@H]4C(=O)N[C@@H](CCCNC(=N)N)C(N)=O)NC(=O)[C@H](CCCCN)NC(=O)[C@H](CSSC[C@H](NC(=O)[C@H](CCC(=O)O)NC(=O)[C@H](C(C)C)NC(=O)[C@H](CC(C)C)NC(=O)[C@H](C)NC(=O)[C@H](CO)NC1=O)C(=O)N[C@@H](CCCCN)C(=O)N[C@@H](CCC(N)=O)C(=O)N[C@@H](CCCCN)C(=O)N3)NC(=O)[C@H](CCCCN)NC(=O)[C@H](CCCCN)NC(=O)[C@H](CC(N)=O)NC(=O)[C@H](CCSC)NC2=O` [Compound 89] (H-S[Nle]D[Nle]RCSALVECKQKCLKAIGSIFGKCMNKKCKCYPR-NH2; disulfide 6-27, 12-32, 16-34), 2700 pM. As for `CCCC[C@H](NC(=O)[C@H](CC(=O)O)NC(=O)[C@H](CCCC)NC(=O)[C@@H](N)CO)C(=O)N[C@@H](CCCNC(=N)N)C(=O)N[C@H]1CSSC[C@@H]2NC(=O)[C@H](CCCCN)NC(=O)CNC(=O)[C@H](Cc3ccccc3)NC(=O)[C@H]([C@@H](C)CC)NC(=O)[C@H](CO)NC(=O)CNC(=O)[C@H]([C@@H](C)CC)NC(=O)[C@H](C)NC(=O)[C@H](CCCCN)NC(=O)[C@H](CC(C)C)NC(=O)[C@@H]3CSSC[C@@H](C(=O)N[C@@H](Cc4ccc(O)cc4)C(=O)N4CCC[C@H]4C(=O)N[C@@H](CCCNC(=N)N)C(N)=O)NC(=O)[C@H](CCCCN)NC(=O)[C@H](CSSC[C@H](NC(=O)[C@H](CCC(=O)O)NC(=O)[C@H](C(C)C)NC(=O)[C@H](C(C)C)NC(=O)[C@H](C)NC(=O)[C@H](CO)NC1=O)C(=O)N[C@@H](CCCCN)C(=O)N[C@@H](CCC(N)=O)C(=O)N[C@@H](CCCCN)C(=O)N3)NC(=O)[C@H](CCCCN)NC(=O)[C@H](CCCCN)NC(=O)[C@H](CC(N)=O)NC(=O)[C@H](CCSC)NC2=O` [Compound 90] (H-S[Nle]D[Nle]RCSAVVECKQKCLKAIGSIFGKCMNKKCKCYPR-NH2; disulfide 6-27, 12-32, 16-34), the IC50 worked out at 190 pM.
